Legend:
CCRF-CEM = assay: NCI60 five-dose screen; type: cell-based; details: Homo sapiens, leukemia; for CC50: read-out: LC50 (the source's name)
K-562 = assay: NCI60 five-dose screen; type: cell-based; details: Homo sapiens, K562, K-562, leukemia; for CC50: read-out: LC50 (the source's name)
MOLT-4 = assay: NCI60 five-dose screen; type: cell-based; details: Homo sapiens, MOLT-4, leukemia; for CC50: read-out: LC50 (the source's name)
EKVX = assay: NCI60 five-dose screen; type: cell-based; details: Homo sapiens, NSC lung cancer; for CC50: read-out: LC50 (the source's name)
HOP-92 = assay: NCI60 five-dose screen; type: cell-based; details: Homo sapiens, HOP-92, NSC lung cancer; for CC50: read-out: LC50 (the source's name)
NCI-H322M = assay: NCI60 five-dose screen; type: cell-based; details: Homo sapiens, NSC lung cancer; for CC50: read-out: LC50 (the source's name)
NCI-H460 = assay: NCI60 five-dose screen; type: cell-based; details: Homo sapiens, NCI-H460, NSC lung cancer; for CC50: read-out: LC50 (the source's name)
NCI-H522 = assay: NCI60 five-dose screen; type: cell-based; details: Homo sapiens, NCI-H522, NSC lung cancer; for CC50: read-out: LC50 (the source's name)
HCT-116 = assay: NCI60 five-dose screen; type: cell-based; details: Homo sapiens, HCT-116, colon cancer; for CC50: read-out: LC50 (the source's name)
HCT-15 = assay: NCI60 five-dose screen; type: cell-based; details: Homo sapiens, HCT-15, colon cancer; for CC50: read-out: LC50 (the source's name)
HT29 = assay: NCI60 five-dose screen; type: cell-based; details: Homo sapiens, HT-29, HT29, colon cancer; for CC50: read-out: LC50 (the source's name)
KM12 = assay: NCI60 five-dose screen; type: cell-based; details: Homo sapiens, KM12, colon cancer; for CC50: read-out: LC50 (the source's name)
SW-620 = assay: NCI60 five-dose screen; type: cell-based; details: Homo sapiens, SW-620, colon cancer; for CC50: read-out: LC50 (the source's name)
SF-295 = assay: NCI60 five-dose screen; type: cell-based; details: Homo sapiens, SF-295, CNS cancer; for CC50: read-out: LC50 (the source's name)
SF-539 = assay: NCI60 five-dose screen; type: cell-based; details: Homo sapiens, SF-539, CNS cancer; for CC50: read-out: LC50 (the source's name)
U251 = assay: NCI60 five-dose screen; type: cell-based; details: Homo sapiens, U-251, U251, CNS cancer; for CC50: read-out: LC50 (the source's name)
SK-MEL-2 = assay: NCI60 five-dose screen; type: cell-based; details: Homo sapiens, SK-MEL-2, melanoma; for CC50: read-out: LC50 (the source's name)
SK-MEL-28 = assay: NCI60 five-dose screen; type: cell-based; details: Homo sapiens, SK-MEL-28, melanoma; for CC50: read-out: LC50 (the source's name)
UACC-257 = assay: NCI60 five-dose screen; type: cell-based; details: Homo sapiens, UACC-257, melanoma; for CC50: read-out: LC50 (the source's name)
IGROV1 = assay: NCI60 five-dose screen; type: cell-based; details: Homo sapiens, IGROV-1; IGROV1, ovarian cancer
OVCAR-4 = assay: NCI60 five-dose screen; type: cell-based; details: Homo sapiens, OVCAR-4, ovarian cancer; for CC50: read-out: LC50 (the source's name)
OVCAR-8 = assay: NCI60 five-dose screen; type: cell-based; details: Homo sapiens, OVCAR-8, ovarian cancer; for CC50: read-out: LC50 (the source's name)
NCI/ADR-RES = assay: NCI60 five-dose screen; type: cell-based, human; details: Homo sapiens, ovarian cancer; for CC50: read-out: LC50 (the source's name)
RXF 393 = assay: NCI60 five-dose screen; type: cell-based; details: Homo sapiens, RXF 393, renal cancer; for CC50: read-out: LC50 (the source's name)
SN12C = assay: NCI60 five-dose screen; type: cell-based; details: Homo sapiens, renal cancer; for CC50: read-out: LC50 (the source's name)
PC-3 = assay: NCI60 five-dose screen; type: cell-based; details: Homo sapiens, PC-3, prostate cancer; for CC50: read-out: LC50 (the source's name)
MCF7 = assay: NCI60 five-dose screen; type: cell-based; details: Homo sapiens, MCF7, breast cancer; for CC50: read-out: LC50 (the source's name)
T-47D = assay: NCI60 five-dose screen; type: cell-based; details: Homo sapiens, T47D, breast cancer; for CC50: read-out: LC50 (the source's name)
[1] = tested on: T47D breast cancer cell line; assay: Cytotoxicity MTT assay, T47D; type: cell-based, human; details: 10 µM and 50 µM
Method: T47D (ATCC HTB-133) was purchased from Biomedia (Thailand) Co., LTD. L929 (ATCC CCL-1) was received as a gift from Prof. Tanapat Palaga, Department of Microbiology, Faculty of Science, Chulalongkorn University, Bangkok, Thailand. The cells were cultured in Dulbecco's Modified Eagle's Medium (DMEM; Gibco) supplemented with 10% fetal bovine serum (FBS; HyClone), 100 U mL^−1 penicillin and 100 µg mL^−1 streptomycin (Gibco) at 37 °C with 5% CO2.
The antiproliferative activity was determined by MTT assay. Briefly, the cells were plated into a 96-well microplate at the density of 10 000 cells per well. The cells were allowed to grow overnight before treated with the solutions of compounds in culture medium at the designated concentrations for 48 hours. The medium was then replaced with MTT solution (0.5 mg mL^−1 MTT in culture medium) and incubated for 3 hours. A 100 µL of DMSO was used to dissolve the produced formazan. Absorbance at 570 nm was then measured using a microplate reader (Varioskan™ LUX multimode microplate reader, Thermo Scientific™). Percent viability was calculated relative to the vehicle control (DMSO).

`O=C(N/N=C/c1ccc([N+](=O)[O-])[nH]1)c1[nH]c2ccc(Br)cc2c1-c1ccccc1` [Derivative 3p, (E)-5-Bromo-N′-((5-nitro-1H-pyrrol-2-yl)methylene)-3-phenyl-1H-indole-2-carbohydrazide] was tested, and the GI50 (CCRF-CEM) was 0.382 µM, the CC50 (CCRF-CEM) was over 100 µM and the GI50 (K-562) was 0.365 µM. For the same molecule, the CC50 (K-562) was over 100 µM, the GI50 (MOLT-4) was 0.537 µM and the CC50 (MOLT-4) was over 100 µM. It also gave a GI50 (EKVX) of 5.37 µM, a CC50 (EKVX) of 45.7 µM and a GI50 (HOP-92) of 1.79 µM. For the same molecule, the CC50 (HOP-92) was 47.3 µM, the GI50 (NCI-H322M) was 11 µM and the CC50 (NCI-H322M) was 53.3 µM. For the same molecule, the GI50 (NCI-H460) was 0.421 µM, the CC50 (NCI-H460) was 45.9 µM and the GI50 (NCI-H522) was 0.588 µM. For the same molecule, the CC50 (NCI-H522) was 19.8 µM, the GI50 (HCT-116) was 0.439 µM and the CC50 (HCT-116) was 33.8 µM. The GI50 (HCT-15) was 0.607 µM, the CC50 (HCT-15) was 35.7 µM and the GI50 (HT29) was 0.55 µM. For the same molecule, the CC50 (HT29) was 43.9 µM, the GI50 (KM12) was 1.17 µM and the CC50 (KM12) was 34.2 µM. It also gave a GI50 (SW-620) of 0.249 µM, a CC50 (SW-620) of 48.4 µM and a GI50 (SF-295) of 0.413 µM. For the same molecule, the CC50 (SF-295) was 29.9 µM, the GI50 (SF-539) was 0.389 µM and the CC50 (SF-539) was 28.1 µM. For the same molecule, the GI50 (U251) was 0.987 µM, the CC50 (U251) was 39.2 µM and the GI50 (SK-MEL-2) was 2.18 µM. For the same molecule, the CC50 (SK-MEL-2) was 36.5 µM, the GI50 (SK-MEL-28) was 2.24 µM and the CC50 (SK-MEL-28) was 43.5 µM. The GI50 (UACC-257) was 3.12 µM, the CC50 (UACC-257) was 48.2 µM and the GI50 (IGROV1) was 1.48 µM. It also gave a GI50 (OVCAR-4) of 0.679 µM, a CC50 (OVCAR-4) of 35.9 µM and a GI50 (OVCAR-8) of 1.02 µM. The CC50 (OVCAR-8) was 39 µM, the GI50 (NCI/ADR-RES) was 0.285 µM and the CC50 (NCI/ADR-RES) was 16.2 µM. The GI50 (RXF 393) was 0.411 µM, the CC50 (RXF 393) was 41.2 µM and the GI50 (SN12C) was 1.24 µM. The CC50 (SN12C) was 36.7 µM, the GI50 (PC-3) was 1.2 µM and the CC50 (PC-3) was 78.5 µM. It also gave a GI50 (MCF7) of 0.394 µM, a CC50 (MCF7) of 39 µM and a GI50 (T-47D) of 2.4 µM. The CC50 (T-47D) was 59.6 µM and the “activity against T47D in two-dose screen” value [1] was “weak activity”.
With `O=C(N/N=C/c1cc([N+](=O)[O-])c[nH]1)c1[nH]c2ccc(Br)cc2c1-c1ccccc1` [Derivative 3q, (E)-5-Bromo-N′-((4-nitro-1H-pyrrol-2-yl)methylene)-3-phenyl-1H-indole-2-carbohydrazide] the GI50 (CCRF-CEM) was 0.799 µM, the CC50 (CCRF-CEM) was over 100 µM and the GI50 (K-562) was 0.387 µM. For the same molecule, the CC50 (K-562) was over 100 µM, the GI50 (MOLT-4) was 0.657 µM and the CC50 (MOLT-4) was over 100 µM. For the same molecule, the GI50 (EKVX) was over 100 µM, the CC50 (EKVX) was over 100 µM and the GI50 (HOP-92) was 11.6 µM. It also gave a CC50 (HOP-92) of over 100 µM, a GI50 (NCI-H322M) of 46.4 µM and a CC50 (NCI-H322M) of over 100 µM. The GI50 (NCI-H460) was 0.328 µM, the CC50 (NCI-H460) was over 100 µM and the GI50 (NCI-H522) was 0.722 µM. It also gave a CC50 (NCI-H522) of over 100 µM, a GI50 (HCT-116) of 0.491 µM and a CC50 (HCT-116) of over 100 µM. It also gave a GI50 (HCT-15) of 0.504 µM, a CC50 (HCT-15) of over 100 µM and a GI50 (HT29) of 0.469 µM. For the same molecule, the CC50 (HT29) was over 100 µM, the GI50 (KM12) was 1.39 µM and the CC50 (KM12) was over 100 µM. For the same molecule, the GI50 (SW-620) was 0.38 µM, the CC50 (SW-620) was over 100 µM and the GI50 (SF-295) was 0.623 µM. For the same molecule, the CC50 (SF-295) was over 100 µM, the GI50 (SF-539) was 0.822 µM and the CC50 (SF-539) was over 100 µM. The GI50 (U251) was 0.574 µM, the CC50 (U251) was 66.8 µM and the GI50 (SK-MEL-2) was 1.3 µM. It also gave a CC50 (SK-MEL-2) of over 100 µM, a GI50 (SK-MEL-28) of 0.89 µM and a CC50 (SK-MEL-28) of over 100 µM. The GI50 (UACC-257) was 2.58 µM, the CC50 (UACC-257) was over 100 µM and the GI50 (IGROV1) was 2.06 µM. The GI50 (OVCAR-4) was 1.06 µM, the CC50 (OVCAR-4) was over 100 µM and the GI50 (OVCAR-8) was 10.2 µM. The CC50 (OVCAR-8) was over 100 µM, the GI50 (NCI/ADR-RES) was 0.434 µM and the CC50 (NCI/ADR-RES) was over 100 µM. The GI50 (RXF 393) was 0.734 µM, the CC50 (RXF 393) was over 100 µM and the GI50 (SN12C) was 2.58 µM. For the same molecule, the CC50 (SN12C) was over 100 µM, the GI50 (PC-3) was 0.724 µM and the CC50 (PC-3) was over 100 µM. It also gave a GI50 (MCF7) of 0.354 µM, a CC50 (MCF7) of over 100 µM and a GI50 (T-47D) of 2.21 µM. The CC50 (T-47D) was over 100 µM and the “activity against T47D in two-dose screen” value [1] was “weak activity”.
